For 28 compounds, IC50 results are on record in US20170121315A1, “HETEROBICYCLICALLY SUBSTITUTED 4-OXOBUTANE ACID DERIVATIVES AND USE THEREOF” (priority 2014, published 2017).

The term IC50 denotes the concentration that gives 50% inhibition. Low values mean greater potency in that assay, high ones weaker potency in that assay.

The target of the assay is T1, human macrophage elastase (HME/hMMP-12) (Homo sapiens, UniProt P39900).
T1 construct: purchased R&D Systems 917-MP
T1 sequence (P39900 106-470): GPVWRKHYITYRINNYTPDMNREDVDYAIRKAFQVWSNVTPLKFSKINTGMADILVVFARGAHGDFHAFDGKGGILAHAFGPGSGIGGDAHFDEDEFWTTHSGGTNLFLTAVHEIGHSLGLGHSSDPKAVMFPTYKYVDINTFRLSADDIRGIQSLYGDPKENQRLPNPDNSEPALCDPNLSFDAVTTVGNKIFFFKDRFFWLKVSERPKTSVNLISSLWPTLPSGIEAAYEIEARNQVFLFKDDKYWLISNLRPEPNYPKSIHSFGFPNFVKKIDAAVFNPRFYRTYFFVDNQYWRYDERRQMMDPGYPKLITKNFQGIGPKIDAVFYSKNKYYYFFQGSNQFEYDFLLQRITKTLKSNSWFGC
Put plainly: In vitro HME inhibition test (standard or high-sensitivity). The format is biochemical. As to conditions: in some cases mean values, rounded to two significant figures. The procedure, abridged: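 Autoactivated HME (0.5 nM; high-sensitivity format 0.05 nM, ~16 h) with 5 μM quenched Mca-PLGLEEA-Dap(Dnp)-NH2 substrate in HEPES pH 7.4, NaCl, CaCl2, ZnCl2, EDTA, Brij buffer, 2 h at 37° C. Fluorescence at ex 323/em 393 nm; IC50 from signal versus concentration.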
Take `CCCOc1ccc2c(C(=O)CC(CCn3nnc4ccccc4c3=O)C(=O)O)coc2c1` (racemic) [Example 86, (+/−)-4-Oxo-2-[2-(4-oxo-1,2,3-benzotriazin-3(4H)-yl)ethyl]-4-(6-propoxy-1-benzofur-3-yl)butanoic acid]: half-maximal inhibition (IC50) required 1.4 nM.

Consider `CCCCCCOc1ccc2cc(C(=O)CC(CCn3nnc4ccccc4c3=O)C(=O)O)oc2c1` (single isomer, unassigned; (+)) [Example 66, (+)-4-[6-(Hexyloxy)-1-benzofur-2-yl]-4-oxo-2-[2-(4-oxo-1,2,3-benzotriazin-3(4H)-yl)ethyl]butanoic acid], for which 2.4 nM corresponded to half-maximal inhibition (IC50).

The compound `CC(C)CCOc1ccc2cc(C(=O)CC(CCn3nnc4ccccc4c3=O)C(=O)O)sc2c1` (racemic) [Example 122, (+/−)-4-[6-(3-Methylbutoxy)-1-benzothiophen-2-yl]-4-oxo-2-[2-(4-oxo-1,2,3-benzotriazin-3(4H)-yl)ethyl]butanoic acid] had an IC50 of 4.5 nM.

As to `CC(C)COc1ccc2c(C(=O)CC(CCn3nnc4ccccc4c3=O)C(=O)O)coc2c1` (single isomer, unassigned; (-)) [Example 106, (−)-4-(6-Isobutoxy-1-benzofur-3-yl)-4-oxo-2-[2-(4-oxo-1,2,3-benzotriazin-3(4H)-yl)ethyl]butanoic acid], half-maximal inhibition (IC50) required 31 nM.

The compound `CCOc1ccc2cc(C(=O)CC(CCn3nnc4ccccc4c3=O)C(=O)O)sc2c1` (racemic) [Example 127, (+/−)-4-(6-Ethoxy-1-benzothiophen-2-yl)-4-oxo-2-[2-(4-oxo-1,2,3-benzotriazin-3(4H)-yl)ethyl]butanoic acid] had an IC50 of 2.8 nM.

`NC(=O)c1ccc(COc2ccc3oc(C(=O)CC(CCn4nnc5ccccc5c4=O)C(=O)O)cc3c2)cc1` (racemic) [Example 35, (+/−)-4-{5-[(4-Carbamoylbenzyl)oxy]-1-benzofur-2-yl}-4-oxo-2-[2-(4-oxo-1,2,3-benzotriazin-3(4H)-yl)ethyl]butanoic acid]: the IC50 turned out to be 2 nM.

As for `O=C(CC(CCn1nnc2ccccc2c1=O)C(=O)O)c1noc2cc(OCCC3CCCCC3)ccc12` (single isomer, unassigned; enantiomer 2) [Example 143, (+)-4-[6-(2-Cyclohexylethoxy)-1,2-benzoxazol-3-yl]-4-oxo-2-[2-(4-oxo-1,2,3-benzotriazin-3(4H)-yl)ethyl]butanoic acid (enantiomer 2)], the IC50 is 0.019 nM.

The compound `O=C(CC(CCn1nnc2ccccc2c1=O)C(=O)O)c1coc2cc(OCC3CCOCC3)ccc12` (single isomer, unassigned; (-)) [Example 97, (−)-4-Oxo-2-[2-(4-oxo-1,2,3-benzotriazin-3(4H)-yl)ethyl]-4-[6-(tetrahydro-2H-pyran-4-ylmethoxy)-1-benzofur-3-yl]butanoic acid] had an IC50 of 25 nM.

With `O=C(CC(CCn1nnc2ccccc2c1=O)C(=O)O)c1coc2cc(OCC3CCCCC3)ccc12` (single isomer, unassigned; (-)) [Example 83, (−)-4-[6-(Cyclohexylmethoxy)-1-benzofur-3-yl]-4-oxo-2-[2-(4-oxo-1,2,3-benzotriazin-3(4H)-yl)ethyl]butanoic acid], the IC50 came out at 1.4 nM.

`O=C(CC(CCn1nnc2ccccc2c1=O)C(=O)O)c1cc2cc(OCc3cc(F)ccc3F)ccc2o1` (racemic) [Example 49, (+/−)-4-{5-[(2,5-Difluorobenzyl)oxy]-1-benzofur-2-yl}-4-oxo-2-[2-(4-oxo-1,2,3-benzotriazin-3(4H)-yl)ethyl]butanoic acid]: the IC50 was determined as 0.55 nM.

Compound `O=C(CC(CCn1nnc2ccccc2c1=O)C(=O)O)c1cc2cc(OCC3CCCC3)ccc2o1` (single isomer, unassigned; enantiomer 1) [Example 17, (−)-4-[5-(Cyclopentylmethoxy)-1-benzofur-2-yl]-4-oxo-2-[2-(4-oxo-1,2,3-benzotriazin-3(4H)-yl)ethyl]butanoic acid (enantiomer 1)] showed an IC50 of 94 nM.

Consider `Cc1ccccc1CCOc1ccc2oc(C(=O)CC(CCn3nnc4ccccc4c3=O)C(=O)O)cc2c1` (racemic) [Example 4, (+/−)-4-{5-[2-(2-Methylphenyl)ethoxy]-1-benzofur-2-yl}-4-oxo-2-[2-(4-oxo-1,2,3-benzotriazin-3(4H)-yl)ethyl]butanoic acid], for which inhibition was half-maximal at 4.3 nM (IC50).

`O=C(CC(CCn1nnc2ccccc2c1=O)C(=O)O)c1noc2cc(OCCC3CCCC3)ccc12` (racemic) [Example 151, (+/−)-4-[6-(2-Cyclopentylethoxy)-1,2-benzoxazol-3-yl]-4-oxo-2-[2-(4-oxo-1,2,3-benzotriazin-3(4H)-yl)ethyl]butanoic acid] displayed an IC50 of 0.27 nM.

`O=C(CC(CCn1nnc2ccccc2c1=O)C(=O)O)c1cc2cc(OCCc3ccccc3)ccc2o1` (single isomer, unassigned; (-)) [Example 20, (−)-4-Oxo-2-[2-(4-oxo-1,2,3-benzotriazin-3(4H)-yl)ethyl]-4-[5-(2-phenylethoxy)-1-benzofur-2-yl]butanoic acid] yielded an IC50 of 860 nM.

For the compound `O=C(CC(CCn1nnc2ccccc2c1=O)C(=O)O)c1cc2cc(OCc3ccc(F)cc3F)ccc2o1` (racemic) [Example 52, (+/−)-4-{5-[(2,4-Difluorobenzyl)oxy]-1-benzofur-2-yl}-4-oxo-2-[2-(4-oxo-1,2,3-benzotriazin-3(4H)-yl)ethyl]butanoic acid], the IC50 was 2.1 nM.

In turn, `O=C(CC(CCn1nnc2ccccc2c1=O)C(=O)O)c1noc2cc(OCC3CCCC3)ccc12` (racemic) [Example 152, (+/−)-4-[6-(Cyclopentylmethoxy)-1,2-benzoxazol-3-yl]-4-oxo-2-[2-(4-oxo-1,2,3-benzotriazin-3(4H)-yl)ethyl]butanoic acid] had an IC50 of 1.4 nM.

The compound `CCCCCOc1ccc2cc(C(=O)CC(CCn3nnc4ccccc4c3=O)C(=O)O)oc2c1` (racemic) [Example 55, (+/−)-4-Oxo-2-[2-(4-oxo-1,2,3-benzotriazin-3(4H)-yl)ethyl]-4-[6-(pentyloxy)-1-benzofur-2-yl]butanoic acid] showed an IC50 of 3.7 nM.

In the case of `CCCOc1ccc2cc(C(=O)CC(CCn3nnc4ccccc4c3=O)C(=O)O)oc2c1` (single isomer, unassigned) [Example 59, 4-Oxo-2-[2-(4-oxo-1,2,3-benzotriazin-3(4H)-yl)ethyl]-4-(6-propoxy-1-benzofur-2-yl)butanoic acid], inhibition was half-maximal at 980 nM (IC50).

Regarding `O=C(CC(CCn1nnc2ccccc2c1=O)C(=O)O)c1cc2cc(OCC3CCCC3)ccc2o1` (single isomer, unassigned; enantiomer 2) [Example 18, (+)-4-[5-(Cyclopentylmethoxy)-1-benzofur-2-yl]-4-oxo-2-[2-(4-oxo-1,2,3-benzotriazin-3(4H)-yl)ethyl]butanoic acid (enantiomer 2)], the IC50 is 6 nM.

`O=C(CC(CCn1nnc2ccccc2c1=O)C(=O)O)c1coc2cc(OCC3CCOCC3)ccc12` (racemic) [Example 95, (+/−)-4-Oxo-2-[2-(4-oxo-1,2,3-benzotriazin-3(4H)-yl)ethyl]-4-[6-(tetrahydro-2H-pyran-4-ylmethoxy)-1-benzofur-3-yl]butanoic acid] came in with an IC50 of 0.6 nM.

The compound `O=C(CC(CCn1nnc2ccccc2c1=O)C(=O)O)c1noc2cc(OCCC3CCCCC3)ccc12` (racemic) [Example 141, (+/−)-4-[6-(2-Cyclohexylethoxy)-1,2-benzoxazol-3-yl]-4-oxo-2-[2-(4-oxo-1,2,3-benzotriazin-3(4H)-yl)ethyl]butanoic acid] had an IC50 of 0.12 nM.

Take `NC(=O)c1cccc(COc2ccc3c(C(=O)CC(CCn4nnc5ccccc5c4=O)C(=O)O)noc3c2)c1` (racemic) [Example 139, (+/−)-4-{6-[(3-Carbamoylbenzyl)oxy]-1,2-benzoxazol-3-yl}-4-oxo-2-[2-(4-oxo-1,2,3-benzotriazin-3(4H)-yl)ethyl]butanoic acid]: the IC50 was determined as 0.58 nM.

`O=C(CC(CCn1nnc2ccccc2c1=O)C(=O)O)c1noc2cc(OCCC3CCCCC3)ccc12` (single isomer, unassigned; enantiomer 1) [Example 142, (−)-4-[6-(2-Cyclohexylethoxy)-1,2-benzoxazol-3-yl]-4-oxo-2-[2-(4-oxo-1,2,3-benzotriazin-3(4H)-yl)ethyl]butanoic acid (enantiomer 1)] displayed an IC50 of 15 nM.

`O=C(CC(CCn1nnc2ccc(C(F)(F)F)cc2c1=O)C(=O)O)c1cc2ccc(OCC3CC3)cc2s1` (racemic) [Example 128, (+/−)-4-[6-(Cyclopropylmethoxy)-1-benzothiophen-2-yl]-4-oxo-2-{2-[4-oxo-6-(trifluoromethyl)-1,2,3-benzotriazin-3(4H)-yl]ethyl}butanoic acid] came in with an IC50 of 1.1 nM.

`O=C(CC(CCn1nnc2ccccc2c1=O)C(=O)O)c1cc2cc(OCc3ccccc3)ccc2o1` (racemic) [Example 28, (+/−)-4-[5-(Benzyloxy)-1-benzofur-2-yl]-4-oxo-2-[2-(4-oxo-1,2,3-benzotriazin-3(4H)-yl)ethyl]butanoic acid] yielded an IC50 of 3.1 nM.

In the case of `CC(C)CCCOc1ccc2oc(C(=O)CC(CCn3nnc4ccccc4c3=O)C(=O)O)cc2c1` (racemic) [Example 40, (+/−)-4-{5-[(4-Methylpentyl)oxy]-1-benzofur-2-yl}-4-oxo-2-[2-(4-oxo-1,2,3-benzotriazin-3(4H)-yl)ethyl]butanoic acid], the IC50 came out at 4.6 nM.

Compound `CCCCOc1ccc2cc(C(=O)CC(CCn3nnc4ccccc4c3=O)C(=O)O)oc2c1` (single isomer, unassigned; (-)) [Example 62, (−)-4-(6-Butoxy-1-benzofur-2-yl)-4-oxo-2-[2-(4-oxo-1,2,3-benzotriazin-3(4H)-yl)ethyl]butanoic acid] had an IC50 of 570 nM.

`CCCOc1ccc2cc(C(=O)CC(CCn3nnc4ccccc4c3=O)C(=O)O)sc2c1` (racemic) [Example 116, (+/−)-4-Oxo-2-[2-(4-oxo-1,2,3-benzotriazin-3(4H)-yl)ethyl]-4-(6-propoxy-1-benzothiophen-2-yl)butanoic acid] registered an IC50 of 4.2 nM.
